US20220409643A1, “ROR Gamma T Inhibitors and Topical Uses Thereof” (Dermira, inc., priority 2019, published 2022)

Tested on: IL17A
Test: skin Resident Immune Cell Assay (sRICA), Th17 model, IL17A protein in media
Type: cell-based
Settings: 100 uM solution in 1% DMSO/OD applied topically to human skin; media collected 24 hours after Th17 activation
Experimental: A skin Resident Immune Cell Assay (sRICA) was used to test compounds for reduction of IL-17A protein upregulation in the Th17 sRICA model. In this model, human surgical skin waste was cultured in a transwell system, with the dermis in contact with cell culture media and the stratum corneum exposed to air. To perform the assay, each human skin sample was defatted and dermatomed to 750μm. Next, 8 mm punch biopsies were obtained and placed in a membrane transwell. The transwells were inserted into culture wells with complete media, and a cocktail of cytokines and antibodies were added to promote skin resident immune cell polarization.
RORγt inhibitors were prepared as a 100 uM solution in 1% DMSO/OD. […] of the prepared topical solution was applied to sRICA wells prepared for topical drug evaluation. Drugs were allowed to penetrate the skin overnight, for up to 24 hours prior to Th17 activation. Media was collected 24 hours after Th17 activation for IL17A protein assessment. IL17A protein was evaluated using the Quanterix IL17A detection kit on the SiMoA platform (via CRO Translational Biosciences). There was significant upregulation of IL17A with Th17 activation. Each study was normalized to the % max of IL17A production (i.e. the average IL17A concentration of Th17 activated skin alone) was set to 100%, all other values (untreated no activation and treated samples) were obtained as a percentage of this. […]

Row | Compound | inhibition at 100 µM [%]
1 | CC(C)(C)c1ccc(NC(=O)[C@H](NC(=O)[C@@H]2CNC(=O)C2)c2ccc3c(c2)CCO3)cc1F [(3S)-N-(2-((4-tert-butyl-3-fluorophenyl)amino)-1-(2,3-dihydro-1-benzofuran-5-yl)-2-oxoethyl)-5-oxopyrrolidine-3-carboxamide] | 48.7
2 | CC(C)n1c(=O)n(CC2CC2)c(=O)c2cc(NC(=O)N3CCC[C@@H](NC(=O)c4ccccc4)C3)ccc21 [(3R)-3-(benzoylamino)-N-(3-(cyclopropylmethyl)-1-isopropyl-2,4-dioxo-1,2,3,4-tetrahydroquinazolin-6-yl)piperidine-1-carboxamide] | 53.2
3 | CC(C)(C)c1ccc(NC(=O)[C@H](NC(=O)C(O)C(F)(F)F)C2CCOCC2)cc1Cl (stereo partly drawn) [N-((1R)-2-((4-tert-butyl-3-chlorophenyl)amino)-2-oxo-1-(tetrahydro-2H-pyran-4-yl)ethyl)-3,3,3-trifluoro-2-hydroxypropanamide] | 71.3
4 | COc1ccc2c(c1)CCN(C(=O)Cc1cc(O)no1)[C@H]2C(=O)Nc1ccc(C(C)(C)C)c(F)c1 [(1R)-N-(4-tert-butyl-3-fluorophenyl)-2-((3-hydroxy-1,2-oxazol-5-yl)acetyl)-6-methoxy-1,2,3,4-tetrahydroisoquinoline-1-carboxamide] | 23.6
5 | COc1ccc2c(c1)CCN(C(=O)Cc1cc(O)no1)[C@H]2C(=O)Nc1cc(F)c2c(c1)CCC2(C)C [(1R)-N-(7-fluoro-1,1-dimethyl-2,3-dihydro-1H-inden-5-yl)-2-((3-hydroxy-1,2-oxazol-5-yl)acetyl)-6-methoxy-1,2,3,4-tetrahydroisoquinoline-1-carboxamide] | 33.9
6 | COCc1ccc([C@@H](NC(=O)Cn2cnccc2=O)C(=O)Nc2ccc(C(C)(C)C)c(F)c2)cc1 | 72.1
7 | COc1ccc2c(c1)CCN(C(=O)Cc1cc(O)no1)[C@H]2C(=O)Nc1cc(F)c(C(C)(C)COCC(F)F)c(F)c1 [(1R)-N-(4-(1-(2,2-difluoroethoxy)-2-methylpropan-2-yl)-3,5-difluorophenyl)-2-((3-hydroxy-1,2-oxazol-5-yl)acetyl)-6-methoxy-1,2,3,4-tetrahydro-isoquinoline-1-carboxamide] | 39.3
8 | COCC(C)(C)c1ccc(NC(=O)[C@H]2c3ccc(OC)cc3CCN2C(=O)c2cc(O)no2)cc1F [(1R)-N-(3-fluoro-4-(1-methoxy-2-methylpropan-2-yl)phenyl)-2-((3-hydroxy-1,2-oxazol-5-yl)carbonyl)-6-methoxy-1,2,3,4-tetrahydroisoquinoline-1-carboxamide] | 55
9 | CC(C)n1c(=O)n(CC2CC(F)(F)C2)c(=O)c2cc(NC(=O)N3CCC[C@@H](N4Cc5ccccc5C4=O)C3)c(F)cc21 [(3R)-N-(3-((3,3-difluorocyclobutyl)-methyl)-7-fluoro-1-isopropyl-2,4-dioxo-1,2,3,4-tetrahydro-quinazolin-6-yl)-3-(1-oxo-1,3-dihydro-2H-isoindol-2-yl)-piperidine-1-carboxamide] | 73.1
10 | COc1ccc2c(n1)CCN(C(=O)Cc1cc(O)no1)[C@H]2C(=O)Nc1cc(F)c2c(c1)CCC2(C)C [(5R)-N-(7-fluoro-1,1-dimethyl-2,3-dihydro-1H-inden-5-yl)-6-((3-hydroxy-1,2-oxazol-5-yl)acetyl)-2-methoxy-5,6,7,8-tetrahydro-1,6-naphthyridine-5-carboxamide] | 19.2
11 | COc1ccc2c(c1)CCN(C(=O)c1cc(O)no1)[C@H]2C(=O)Nc1ccc(C(C)(C)C)c(F)c1 (stereo in doubt) [N-(4-tert-butyl-3-fluorophenyl)-2-((3-hydroxy-1,2-oxazol-5-yl)carbonyl)-6-methoxy-1,2,3,4-tetrahydroisoquinoline-1-carboxamide] | 36
12 | COCc1ccc2c(c1)CCN(C(=O)c1cc(O)no1)[C@H]2C(=O)Nc1cc(F)c2c(c1)CCC2(C)C [(1R)-N-(7-fluoro-1,1-dimethyl-2,3-dihydro-1H-inden-5-yl)-2-((3-hydroxy-1,2-oxazol-5-yl)carbonyl)-6-(methoxymethyl)-1,2,3,4-tetrahydroisoquinoline-1-carboxamide] | 59.1
13 | COCc1ccc2c(c1)CCN(C(=O)Cc1cc(O)no1)[C@H]2C(=O)Nc1ccc(C(C)(C)C)c(F)c1 [(1R)-N-(4-tert-butyl-3-fluorophenyl)-2-((3-hydroxy-1,2-oxazol-5-yl)acetyl)-6-methoxymethyl-1,2,3,4-tetrahydroisoquinoline-1-carboxamide] | 60.8

Same assay, conditions: Homo sapiens, 24 h, 100 uM solution in 1% DMSO/OD applied topically to human skin; media collected 24 hours after Th17 activation

Row | Compound | inhibition at 100 µM [%]
14 | CN(C(=O)c1cc(O)no1)C(C(=O)Nc1cc(F)c([Si](C)(C)C)c(F)c1)C1CCOCC1 (stereo not drawn) [N-(2-((3,5-difluoro-4-(trimethylsilyl)phenyl)amino)-2-oxo-1-(tetrahydro-2H-pyran-4-yl)ethyl)-3-hydroxy-N-methyl-1,2-oxazole-5-carboxamide] | 31.7
15 | COCc1ccc([C@@H](NC(=O)C2CCN(C(C)=O)CC2)C(=O)Nc2ccc([Si](C)(C)C)c(F)c2)cc1 [1-acetyl-N-((1R)-2-((3-fluoro-4-(trimethylsilyl)phenyl)amino)-1-(4-(methoxymethyl)phenyl)-2-oxoethyl)piperidine-4-carboxamide] | 77.5
16 | CN(C(=O)c1cc(O)no1)[C@@H](C(=O)Nc1cc(F)c([Si](C)(C)C)c(F)c1)C1CCOCC1 (stereo in doubt) [N-(2-((3,5-difluoro-4-(trimethylsilyl)phenyl)amino)-2-oxo-1-(tetrahydro-2H-pyran-4-yl)ethyl)-3-hydroxy-N-methyl-1,2-oxazole-5-carboxamide] | 82.5
17 | COCc1ccc([C@@H](NC(=O)CS(C)(=O)=O)C(=O)Nc2ccc([Si](C)(C)C)c(F)c2)cc1 [(2R)-N-(3-fluoro-4-(trimethylsilyl)phenyl)-2-(4-(methoxymethyl)phenyl)-2-(((methylsulfonyl)acetyl)amino)acetamide] | 31.3
18 | COCc1ccc([C@@H](NC(=O)Cn2ccc(=O)[nH]c2=O)C(=O)Nc2ccc([Si](C)(C)C)c(F)c2)cc1 [(2R)-2-(((2,4-dioxo-3,4-dihydropyrimidin-1(2H)-yl)acetyl)amino)-N-(3-fluoro-4-(trimethylsilyl)phenyl)-2-(4-(methoxymethyl)phenyl)acetamide] | 68.6
19 | COCc1ccc([C@@H](NC(=O)CCS(C)(=O)=O)C(=O)Nc2ccc([Si](C)(C)C)c(F)c2)cc1 [N-((1R)-2-((3-fluoro-4-(trimethylsilyl)phenyl)amino)-1-(4-(methoxymethyl)phenyl)-2-oxoethyl)-3-(methylsulfonyl)propanamide] | 67.4
20 | COCc1ccc([C@@H](NC(=O)Cc2nnc(C)o2)C(=O)Nc2cc(F)c([Si](C)(C)C)c(F)c2)cc1 [(2R)-N-(3,5-difluoro-4-(trimethylsilyl)phenyl)-2-(4-(methoxymethyl)phenyl)-2-(((5-methyl-1,3,4-oxadiazol-2-yl)acetyl)amino)acetamide] | 60.8
21 | COCc1ccc([C@@H](NC(=O)N2CC(O)C2)C(=O)Nc2ccc([Si](C)(C)C)c(F)c2)cc1 [N-((1R)-2-((3-fluoro-4-(trimethylsilyl)phenyl)amino)-1-(4-(methoxymethyl)phenyl)-2-oxoethyl)-3-hydroxyazetidine-1-carboxamide] | 54.6
22 | COCc1ccc(C(NC(=O)C2CNC(=O)C2)C(=O)Nc2ccc([Si](C)(C)C)c(F)c2)cc1 (stereo not drawn) [N-(2-((3-fluoro-4-(trimethylsilyl)phenyl)amino)-1-(4-(methoxymethyl)phenyl)-2-oxoethyl)-5-oxopyrrolidine-3-carboxamide] | 85.2
23 | COc1ccc2c(c1)CCN(C(=O)Cc1cc(O)no1)[C@H]2C(=O)Nc1ccc([Si](C)(C)C)c(F)c1 [(1R)-N-(3-fluoro-4-(trimethylsilyl)phenyl)-2-((3-hydroxy-1,2-oxazol-5-yl)acetyl)-6-methoxy-1,2,3,4-tetrahydroisoquinoline-1-carboxamide] | 31.2
24 | COCc1ccc([C@@H](NC(=O)Cn2ccc(=O)cc2)C(=O)Nc2ccc([Si](C)(C)C)c(F)c2)cc1 | 78.4
25 | COCc1ccc2c(n1)CCN(C(=O)Cc1cc(O)no1)[C@H]2C(=O)Nc1cc(F)c([Si](C)(C)C)c(F)c1 [(5R)-N-(3,5-difluoro-4-(trimethylsilyl)phenyl)-6-((3-hydroxy-1,2-oxazol-5-yl)acetyl)-2-(methoxymethyl)-5,6,7,8-tetrahydro-1,6-naphthyridine-5-carboxamide] | 60.1
26 | COc1ccc2c(n1)CCN(C(=O)CCCC(=O)O)[C@H]2C(=O)Nc1ccc([Si](C)(C)C)c(F)c1 [5-((5R)-5-((3-fluoro-4-(trimethylsilyl)phenyl)carbamoyl)-2-methoxy-7,8-dihydro-1,6-naphthyridin-6(5H)-yl)-5-oxopentanoic acid] | 51.5
27 | COCc1ccc2c(n1)CCN(C(=O)c1cc(O)no1)[C@H]2C(=O)Nc1cc(F)c([Si](C)(C)C)c(F)c1 [(5R)-N-(3,5-difluoro-4-(trimethylsilyl)phenyl)-6-((3-hydroxy-1,2-oxazol-5-yl)carbonyl)-2-(methoxymethyl)-5,6,7,8-tetrahydro-1,6-naphthyridine-5-carboxamide] | -15.5
